The text below walks through data of patent US4321381A, “Ergot derivatives” (Farmitalia Carlo Erba S.p.A., priority 1978, dated 1982).

One series relates to male mice. Kind of series: Acute toxicity (LD50) in mice. The format is in vivo, mouse. Particulars: oral, observed for seven days, 10080 min. The source says: Evaluation of the Toxicity (LD50)
Ten male mice for each group were orally treated with drugs at different dose levels for the determination of lethal dose 50 (LD50).

Series [1] relates to spontaneously hypertensive male rats, strain MHS. Description: Anti-hypertensive activity in the spontaneously hypertensive rat (MHS): blood pressure and heart rate at the tail. In kind it is in vivo. The protocol:
1. Spontaneously Hypertensive Rat (MHS)
Four spontaneously hypertensive male rats, strain MHS, weight 250 to 300 g for each group were used. The animals were treated for four consecutive days. The drugs were administered by gastric gavage while suspended in 5% arabic gum (0.2 ml/100 g body weight), and blood pressure (BP) and heart rate (HR) were measured at the tail by BP Recorder W+W. Blood pressure and heart rate were measured on the first and fourth day of treatment 1 hour before and 1 and 5 hours after drug administration.

Where [2] appears, read: 100 mg/kg os, first day, 1 hr after dose.

In the case of `C[C@](N)(Cc1ccc(O)c(O)c1)C(=O)O` [α-methyl-DOPA, reference compound], the LD50 in the series with male mice turned out to be 5300 mg/kg per os. Further, the “Change in HR, 1 hr after dose, first day” value in series [1] (30 mg/kg os, first day, 1 hr after dose) is on record as “+40 b/min”; in series [1] (setting [2]), “+87 b/min”. In addition, the “Change in HR, 5 hr after dose, first day” value in series [1] (30 mg/kg os, first day, 5 hr after dose) is recorded as “+15 b/min”. Moreover, the “Change in BP, 5 hrs after dose, first day” value in series [1] (30 mg/kg os, first day) is -12 mm Hg; in series [1] (100 mg/kg os, first day), -38 mm Hg. Further, the “Change in BP, 1 hr after dose, fourth day” value in series [1] (30 mg/kg os, 1 hr after dose) is -12 mm Hg; in series [1] (100 mg/kg os, 1 hr after dose), -41 mm Hg. In addition, the “Change in HR, 1 hr after dose, fourth day” value in series [1] (30 mg/kg os, 1 hr after dose) is listed as “+57 b/min”; in series [1] (100 mg/kg os, 1 hr after dose) it was “+77 b/min”. Also, the “Change in HR, 5 hr after dose, fourth day” value is -18 b/min in series [1] (30 mg/kg os, 5 hr after dose) and “+37 b/min” in series [1] (100 mg/kg os, 5 hr after dose). For the same compound, the “Change in BP, 5 hrs after dose, fourth day” value is given as -19 mm Hg in series [1] (30 mg/kg os) and -53 mm Hg in series [1] (100 mg/kg os). Further, in series [1] (setting [2]), the “Change in BP, 1 hr after dose, first day” value is “+5 mm Hg”. Further, the “variation of the heart rate (HR), in words” value in series [1] (Table 2) is given as “greatly increases it”.
